Tested on: patients having hormone refractory prostate cancer (HRPCa)
Assay: Health-related quality-adjusted time-to-progression (QATTP) of disease, Kaplan-Meier product limit analysis, randomized placebo-controlled study
Format: in vivo, human
Experimental: The health-related QATTP of disease model for this invention expresses progression-free time as an equally preferable amount of time spent in full health. This is achieved by using patient-reported health-related QoL, as measured for the duration of observation or progression-free interval, to weight progression-free time. […] Patients received treatment with 10 mg (N=89) or 2.5 mg (N=95) of atrasentan or placebo (N=104) until experiencing a clinical event indicative of disease progression such as palliative opiate treatment of new bone or visceral pain, palliative radiation treatment of new bone pain, or new tumor growth symptoms requiring intervention or treatment with chemotherapy. Patient-reported health-related QoL data were collected with the EORTC QLQ-30 and the FACT-G and FACT-P, both of which were administered at baseline, at six week intervals and at each patient's final visit. The results from the 10 mg and 2.5 mg treatment groups are reported relative to the placebo group. A patient's transformed domain score and total score from both the EORTC QLQ-30 and FACT were used to weight the time-to-progression outcome data. Transformed domain scores ranged between 0 and 1, so the reported health-related QATTP of disease outcome was never larger than the actual time-to-progression. Each patient's health-related QATTP of disease was computed as the sum of the health-related QoL weights multiplied by the duration for which that patient experienced that health-related QoL. If a patient experienced a clinical event between two health-related QoL assessments, the set of health-related QoL domain scores immediately prior to the event were carried forward to the time of the clinical event. The mean and median health-related QATTP of disease outcomes were then estimated using Kaplan-Meier product limit methodology (Journal of the American Statistical Association, vol. 53, 1958, pp 457-481). The area under a Kaplan-Meier survival curve conveys an estimated mean health-related QATTP of disease. This analysis was applied to both intent-to-treat and per protocol population data. All health-related QATTP of disease comparisons between atrasentan and placebo treatment groups were based on a log-rank test with statistical significance at an α of 0.05. Results of the Kaplan-Meier product limit survival method analysis are reported in TABLE 2 (Intent to Treat) and TABLE 3 (Per Protocol Population). Mean and median health-related QATTP of disease are shown by treatment group. Log-rank tests comparing the differences between treatment groups are also reported.

[1] = EORTC Physical Functioning, 10 mg, intent to treat
[2] = EORTC Physical Functioning, 10 mg, per protocol
[3] = EORTC Role Functioning, 2.5 mg, intent to treat
[4] = EORTC Role Functioning, 2.5 mg, per protocol
[5] = EORTC Role Functioning, 10 mg, intent to treat
[6] = EORTC Role Functioning, 10 mg, per protocol
[7] = EORTC Sleep Disturbance, 2.5 mg, intent to treat
[8] = EORTC Sleep Disturbance, 2.5 mg, per protocol
[9] = EORTC Sleep Disturbance, 10 mg, intent to treat
[10] = EORTC Sleep Disturbance, 10 mg, per protocol
[11] = EORTC Social Functioning, 2.5 mg, intent to treat
[12] = EORTC Social Functioning, 2.5 mg, per protocol
[13] = EORTC Social Functioning, 10 mg, intent to treat
[14] = EORTC Social Functioning, 10 mg, per protocol
[15] = FACT Emotional Well Being, 2.5 mg, intent to treat
[16] = FACT Emotional Well Being, 2.5 mg, per protocol
[17] = FACT Emotional Well Being, 10 mg, intent to treat
[18] = FACT Emotional Well Being, 10 mg, per protocol
[19] = FACT Functional Well Being, 2.5 mg, intent to treat
[20] = FACT Functional Well Being, 2.5 mg, per protocol
[21] = FACT Functional Well Being, 10 mg, intent to treat
[22] = FACT Functional Well Being, 10 mg, per protocol
[23] = FACT Physical Well Being, 2.5 mg, intent to treat
[24] = FACT Physical Well Being, 2.5 mg, per protocol
[25] = FACT Physical Well Being, 10 mg, intent to treat
[26] = FACT Physical Well Being, 10 mg, per protocol
[27] = FACT Social/Family Well Being, 2.5 mg, intent to treat
[28] = FACT Social/Family Well Being, 2.5 mg, per protocol
[29] = FACT Social/Family Well Being, 10 mg, intent to treat
[30] = FACT Social/Family Well Being, 10 mg, per protocol
[31] = FACT Total, 2.5 mg, intent to treat
[32] = FACT Total, 2.5 mg, per protocol
[33] = FACT Total, 10 mg, intent to treat
[34] = FACT Total, 10 mg, per protocol
[35] = FACT-G, 2.5 mg, intent to treat
[36] = FACT-P, 2.5 mg, intent to treat

`CCCCN(CCCC)C(=O)CN1C[C@H](c2ccc3c(c2)OCO3)[C@@H](C(=O)O)[C@@H]1c1ccc(OC)cc1` [atrasentan, (2R,3R,4S)-2-(4-methoxyphenyl)-4-(1,3-benzodioxol-5-yl)-1-(((N,N-dibutylamino)carbonyl)methyl)pyrrolidine-3-carboxylic acid] was tested. Which “QATTP of Disease Median” value (EORTC Physical Functioning, 2.5 mg, per protocol) did it give?
The value was 124 days.

And the “QATTP of Disease Mean” value [1]?
Its value is 164 days.

And the “QATTP of Disease Median” value [1]?
Its value is 119 days.

And the “QATTP of Disease Mean” value [2]?
The value was 168 days.

What about the “QATTP of Disease Median” value [2] of the same compound?
Its value is 127 days.

And the “QATTP of Disease Mean” value [3]?
The value was 176 days.

And the “QATTP of Disease Median” value [3]?
The value was 128 days.

And the “QATTP of Disease Mean” value [4]?
The value was 185 days.

And the “QATTP of Disease Median” value [4]?
The value was 142 days.

What about the “QATTP of Disease Mean” value [5] of the same compound?
The value was 180 days.

And the “QATTP of Disease Median” value [5]?
Its value is 123 days.

And the “QATTP of Disease Mean” value [6]?
Its value is 187 days.

What about the “QATTP of Disease Median” value [6] of the same compound?
Its value is 128 days.

And the “QATTP of Disease Mean” value [7]?
Its value is 172 days.

What about the “QATTP of Disease Median” value [7] of the same compound?
The value was 127 days.

And the “QATTP of Disease Mean” value [8]?
The value was 179 days.

And the “QATTP of Disease Median” value [8]?
The value was 137 days.

What about the “QATTP of Disease Mean” value [9] of the same compound?
The value was 158 days.

What about the “QATTP of Disease Median” value [9] of the same compound?
Its value is 123 days.

What about the “QATTP of Disease Mean” value [10] of the same compound?
The value was 162 days.

What about the “QATTP of Disease Median” value [10] of the same compound?
The value was 127 days.

What about the “QATTP of Disease Mean” value [11] of the same compound?
Its value is 184 days.

What about the “QATTP of Disease Median” value [11] of the same compound?
Its value is 142 days.

What about the “QATTP of Disease Mean” value [12] of the same compound?
Its value is 192 days.

What about the “QATTP of Disease Median” value [12] of the same compound?
The value was 156 days.

What about the “QATTP of Disease Mean” value [13] of the same compound?
The value was 190 days.

What about the “QATTP of Disease Median” value [13] of the same compound?
Its value is 135 days.

What about the “QATTP of Disease Mean” value [14] of the same compound?
Its value is 196 days.

What about the “QATTP of Disease Median” value [14] of the same compound?
Its value is 141 days.

And the “QATTP of Disease Mean” value [15]?
The value was 180 days.

What about the “QATTP of Disease Median” value [15] of the same compound?
The value was 133 days.

And the “QATTP of Disease Mean” value [16]?
Its value is 188 days.

What about the “QATTP of Disease Median” value [16] of the same compound?
Its value is 147 days.

What about the “QATTP of Disease Mean” value [17] of the same compound?
Its value is 163 days.

And the “QATTP of Disease Median” value [17]?
The value was 127 days.

And the “QATTP of Disease Mean” value [18]?
Its value is 168 days.

And the “QATTP of Disease Median” value [18]?
The value was 131 days.

What about the “QATTP of Disease Mean” value [19] of the same compound?
The value was 161 days.

What about the “QATTP of Disease Median” value [19] of the same compound?
The value was 111 days.

And the “QATTP of Disease Mean” value [20]?
The value was 168 days.

What about the “QATTP of Disease Median” value [20] of the same compound?
Its value is 111 days.

And the “QATTP of Disease Mean” value [21]?
The value was 140 days.

What about the “QATTP of Disease Median” value [21] of the same compound?
The value was 98 days.

And the “QATTP of Disease Mean” value [22]?
The value was 144 days.

What about the “QATTP of Disease Median” value [22] of the same compound?
The value was 113 days.

What about the “QATTP of Disease Mean” value [23] of the same compound?
Its value is 181 days.

What about the “QATTP of Disease Median” value [23] of the same compound?
Its value is 135 days.

And the “QATTP of Disease Mean” value [24]?
The value was 191 days.

What about the “QATTP of Disease Median” value [24] of the same compound?
Its value is 148 days.

And the “QATTP of Disease Mean” value [25]?
Its value is 184 days.

What about the “QATTP of Disease Median” value [25] of the same compound?
The value was 127 days.

What about the “QATTP of Disease Mean” value [26] of the same compound?
The value was 190 days.

What about the “QATTP of Disease Median” value [26] of the same compound?
The value was 130 days.

What about the “QATTP of Disease Mean” value [27] of the same compound?
Its value is 160 days.

And the “QATTP of Disease Median” value [27]?
Its value is 126 days.

What about the “QATTP of Disease Mean” value [28] of the same compound?
Its value is 169 days.

And the “QATTP of Disease Median” value [28]?
Its value is 143 days.

And the “QATTP of Disease Mean” value [29]?
The value was 147 days.

And the “QATTP of Disease Median” value [29]?
Its value is 121 days.

What about the “QATTP of Disease Mean” value [30] of the same compound?
The value was 151 days.

What about the “QATTP of Disease Median” value [30] of the same compound?
Its value is 126 days.

What about the “QATTP of Disease Mean” value [31] of the same compound?
Its value is 166 days.

What about the “QATTP of Disease Median” value [31] of the same compound?
Its value is 125 days.

And the “QATTP of Disease Mean” value [32]?
Its value is 174 days.

And the “QATTP of Disease Median” value [32]?
Its value is 135 days.

What about the “QATTP of Disease Mean” value [33] of the same compound?
Its value is 152 days.

And the “QATTP of Disease Median” value [33]?
Its value is 117 days.

What about the “QATTP of Disease Mean” value [34] of the same compound?
The value was 157 days.

And the “QATTP of Disease Median” value [34]?
The value was 127 days.

And the “QATTP of Disease Mean” value [35]?
The value was 172 days.

What about the “QATTP of Disease Median” value [35] of the same compound?
Its value is 129 days.

And the “QATTP of Disease Mean” value (FACT-G, 2.5 mg, per protocol)?
The value was 180 days.

And the “QATTP of Disease Median” value (FACT-G, 2.5 mg, per protocol)?
The value was 143 days.

And the “QATTP of Disease Mean” value (FACT-G, 10 mg, intent to treat)?
Its value is 160 days.

And the “QATTP of Disease Median” value (FACT-G, 10 mg, intent to treat)?
Its value is 123 days.

And the “QATTP of Disease Mean” value (FACT-G, 10 mg, per protocol)?
The value was 165 days.

And the “QATTP of Disease Median” value (FACT-G, 10 mg, per protocol)?
Its value is 130 days.

And the “QATTP of Disease Mean” value [36]?
Its value is 152 days.

And the “QATTP of Disease Median” value [36]?
The value was 115 days.

What about the “QATTP of Disease Mean” value (FACT-P, 2.5 mg, per protocol) of the same compound?
Its value is 160 days.

And the “QATTP of Disease Median” value (FACT-P, 2.5 mg, per protocol)?
The value was 117 days.

What about the “QATTP of Disease Mean” value (FACT-P, 10 mg, intent to treat) of the same compound?
The value was 135 days.

What about the “QATTP of Disease Median” value (FACT-P, 10 mg, intent to treat) of the same compound?
Its value is 107 days.

And the “QATTP of Disease Mean” value (FACT-P, 10 mg, per protocol)?
The value was 139 days.

And the “QATTP of Disease Median” value (FACT-P, 10 mg, per protocol)?
The value was 111 days.

And the “health-related QATTP over placebo” value (both 10 mg and 2.5 mg, per protocol population, after adjusting for health-related QoL effects)?
The value was “longer”.

And the “mean health-related QATTP's of disease” value (data in TABLE 3, both 10 mg and 2.5 mg treatment groups)?
The value was “both delays and improvement”.

What about the “differences in the QATTP across treatment groups” value (intent-to-treat population) of the same compound?
Its value is “no statistically significant differences”.

From patent US20030092757A1, “Favorable modulation of health-related quality of life and health-related quality-adjusted time-to-progression of disease in patients with prostate cancer” (priority 2001, published 2003)
